The values that follow come from patent US9359352B2, “Substituted benzimidazoles as PI3 kinase inhibitors” (Intellikine LLC, priority 2010, dated 2016).

Like-named read-outs stand apart in the source and are kept apart here. A value given as a limit tells only on which side of the number the result lay.

Holding throughout (type): biochemical
In assay [1] the target is T1, PI3K α (Homo sapiens, UniProt P42336).
T1 construct: purchased Upstate
Kind of assay: PI 3-Kinase HTRF inhibition assay, PI3K α. Particulars: in vitro; read-out: PI3K α IC50. As for the experimental part:
(§1) Commercial kits or systems for assaying PI3-K activities are available. The commercially available kits or systems can be used to screen for inhibitors and/or agonists of PI3-Ks including but not limited to PI 3-Kinase α, β, δ, and γ. An exemplary system is PI 3-Kinase (human) HTRF™ Assay from Upstate. […] Briefly, the assay is a time resolved FRET assay that indirectly measures PIP3 product formed by the activity of a PI3-K. The kinase reaction is performed in a microtitre plate (e.g., a 384 well microtitre plate). The total reaction volume is approximately 20 ul per well. In the first step, each well receives 2 ul of test compound in 20% dimethylsulphoxide resulting in a 2% DMSO final concentration. Next, approximately 14.5 ul of a kinase/PIP2 mixture (diluted in 1× reaction buffer) is added per well for a final concentration of 0.25-0.3 ug/ml kinase and 10 μM PIP2. The plate is scaled and incubated for 15 minutes at room temperature. To start the reaction, 3.5 ul of ATP (diluted in 1× reaction buffer) is added per well for a final concentration of 10 μM ATP. The plate is sealed and incubated for 1 hour at room temperature. The reaction is stopped by adding 5 ul of Stop Solution per well and then 5 ul of Detection Mix is added per well. The plate is sealed, incubated for 1 hour at room temperature, and then read on an appropriate plate reader. Data is analyzed and IC50s are generated using GraphPad Prism 5. For PI3K α, β, δ, and γ, the nM concentration of inhibitor to reach IC50 is provided. […] Similar assays, and others known in the art, can be used to measure the percent inhibition of other kinases, including but not limited to PI3K class II kinases, phosphoinositide 4 kinases (PI4K), and phosphoinositide 5 kinases (PI5K).
Background: In TR-FRET formats the signal depends on donor and acceptor labels being close together.

Assay [2] concerns the target T2, PI3K γ (Homo sapiens, UniProt P48736).
T2 construct: purchased Upstate
Kind of assay: PI 3-Kinase HTRF inhibition assay, PI3K γ. Particulars: in vitro.

Assay [3] has as its target T3, PI3K δ (Homo sapiens, UniProt O00329).
T3 construct: purchased Upstate
The assay is described as follows: PI 3-Kinase HTRF inhibition assay, PI3K δ. As for the experimental part:
as §1

Assay [4] has as its target T4, PI3K β (Homo sapiens, UniProt P42338).
T4 construct: purchased Upstate
The assay is described as follows: PI 3-Kinase HTRF inhibition assay, PI3K β. The note with it: in vitro. On the procedure:
as §1

[5] abbreviates: in vitro, read-out: PI3K δ IC50.

T2 sequence (P48736 whole entry): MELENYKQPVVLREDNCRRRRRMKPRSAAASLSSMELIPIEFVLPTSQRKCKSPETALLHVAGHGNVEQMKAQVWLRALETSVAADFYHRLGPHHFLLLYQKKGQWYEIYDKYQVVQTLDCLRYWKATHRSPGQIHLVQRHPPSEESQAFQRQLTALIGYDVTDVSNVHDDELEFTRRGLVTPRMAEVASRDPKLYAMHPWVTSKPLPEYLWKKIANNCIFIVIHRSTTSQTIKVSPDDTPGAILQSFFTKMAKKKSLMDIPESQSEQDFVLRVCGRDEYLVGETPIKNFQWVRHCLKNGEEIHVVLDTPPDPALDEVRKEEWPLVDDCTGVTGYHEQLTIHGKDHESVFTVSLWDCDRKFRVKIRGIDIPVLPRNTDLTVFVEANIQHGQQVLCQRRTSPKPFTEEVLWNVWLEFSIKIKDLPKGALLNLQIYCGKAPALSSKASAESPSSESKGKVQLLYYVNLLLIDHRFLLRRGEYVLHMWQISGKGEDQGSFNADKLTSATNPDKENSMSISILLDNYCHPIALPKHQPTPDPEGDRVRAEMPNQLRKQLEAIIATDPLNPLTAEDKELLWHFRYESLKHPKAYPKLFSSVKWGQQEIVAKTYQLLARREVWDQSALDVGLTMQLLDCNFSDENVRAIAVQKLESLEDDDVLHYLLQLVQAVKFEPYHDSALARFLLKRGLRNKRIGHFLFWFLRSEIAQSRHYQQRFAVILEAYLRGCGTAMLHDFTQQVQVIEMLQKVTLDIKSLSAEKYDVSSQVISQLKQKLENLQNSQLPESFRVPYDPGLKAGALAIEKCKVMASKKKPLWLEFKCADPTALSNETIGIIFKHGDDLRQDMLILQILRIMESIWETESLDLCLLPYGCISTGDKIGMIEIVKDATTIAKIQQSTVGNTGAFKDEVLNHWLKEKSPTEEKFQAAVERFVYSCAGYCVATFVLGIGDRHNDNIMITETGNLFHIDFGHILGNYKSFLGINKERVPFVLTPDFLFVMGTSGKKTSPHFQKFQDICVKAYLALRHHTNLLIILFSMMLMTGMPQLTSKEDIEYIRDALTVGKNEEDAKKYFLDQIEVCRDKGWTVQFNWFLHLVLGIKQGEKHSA
T3 sequence (O00329 whole entry): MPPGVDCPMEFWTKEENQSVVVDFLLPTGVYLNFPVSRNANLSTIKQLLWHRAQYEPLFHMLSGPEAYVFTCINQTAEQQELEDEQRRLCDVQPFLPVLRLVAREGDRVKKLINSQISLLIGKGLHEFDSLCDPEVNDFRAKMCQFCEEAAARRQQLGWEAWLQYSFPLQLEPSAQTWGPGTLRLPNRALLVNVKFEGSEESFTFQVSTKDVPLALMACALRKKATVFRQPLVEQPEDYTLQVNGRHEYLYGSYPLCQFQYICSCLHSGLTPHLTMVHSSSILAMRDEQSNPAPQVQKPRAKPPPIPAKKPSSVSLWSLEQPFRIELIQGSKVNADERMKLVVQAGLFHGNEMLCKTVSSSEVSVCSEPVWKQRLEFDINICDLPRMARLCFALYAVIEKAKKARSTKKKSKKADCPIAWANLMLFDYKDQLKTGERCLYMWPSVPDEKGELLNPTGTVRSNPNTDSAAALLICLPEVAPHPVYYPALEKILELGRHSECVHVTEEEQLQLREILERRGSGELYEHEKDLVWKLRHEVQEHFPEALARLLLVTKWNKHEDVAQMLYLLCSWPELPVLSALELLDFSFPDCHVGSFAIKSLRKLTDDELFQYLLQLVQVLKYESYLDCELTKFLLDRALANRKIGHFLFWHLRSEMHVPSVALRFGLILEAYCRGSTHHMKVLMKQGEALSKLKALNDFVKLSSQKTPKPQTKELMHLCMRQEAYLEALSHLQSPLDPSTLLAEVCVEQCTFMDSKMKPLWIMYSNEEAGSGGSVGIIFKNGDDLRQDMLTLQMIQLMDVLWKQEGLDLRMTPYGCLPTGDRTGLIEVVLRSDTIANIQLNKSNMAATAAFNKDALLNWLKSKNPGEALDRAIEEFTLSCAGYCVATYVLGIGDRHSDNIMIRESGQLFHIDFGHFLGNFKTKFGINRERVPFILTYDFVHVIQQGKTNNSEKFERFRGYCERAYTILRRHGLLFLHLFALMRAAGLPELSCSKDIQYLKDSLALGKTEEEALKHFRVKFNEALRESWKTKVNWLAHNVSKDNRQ
T3 sequence (P27986 whole entry partner): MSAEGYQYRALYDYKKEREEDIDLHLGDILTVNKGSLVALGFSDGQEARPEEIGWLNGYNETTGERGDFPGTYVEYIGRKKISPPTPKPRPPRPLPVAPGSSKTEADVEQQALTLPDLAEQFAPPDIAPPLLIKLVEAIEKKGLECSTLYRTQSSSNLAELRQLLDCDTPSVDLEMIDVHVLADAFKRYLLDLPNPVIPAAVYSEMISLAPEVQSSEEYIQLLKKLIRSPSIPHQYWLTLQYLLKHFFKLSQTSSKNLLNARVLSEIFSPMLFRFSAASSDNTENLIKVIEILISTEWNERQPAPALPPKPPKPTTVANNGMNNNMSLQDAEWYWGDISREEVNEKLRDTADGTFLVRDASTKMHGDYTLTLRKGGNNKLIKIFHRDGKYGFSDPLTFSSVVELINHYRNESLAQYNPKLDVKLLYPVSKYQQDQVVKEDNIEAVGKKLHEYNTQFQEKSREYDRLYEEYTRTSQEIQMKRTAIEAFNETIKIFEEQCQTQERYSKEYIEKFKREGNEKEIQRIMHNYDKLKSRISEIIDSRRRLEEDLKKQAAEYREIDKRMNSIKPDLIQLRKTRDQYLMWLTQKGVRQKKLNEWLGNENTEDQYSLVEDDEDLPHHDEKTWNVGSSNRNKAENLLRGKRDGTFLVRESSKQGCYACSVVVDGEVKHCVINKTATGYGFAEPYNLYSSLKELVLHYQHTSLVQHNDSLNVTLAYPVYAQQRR
T4 sequence (P42338 whole entry): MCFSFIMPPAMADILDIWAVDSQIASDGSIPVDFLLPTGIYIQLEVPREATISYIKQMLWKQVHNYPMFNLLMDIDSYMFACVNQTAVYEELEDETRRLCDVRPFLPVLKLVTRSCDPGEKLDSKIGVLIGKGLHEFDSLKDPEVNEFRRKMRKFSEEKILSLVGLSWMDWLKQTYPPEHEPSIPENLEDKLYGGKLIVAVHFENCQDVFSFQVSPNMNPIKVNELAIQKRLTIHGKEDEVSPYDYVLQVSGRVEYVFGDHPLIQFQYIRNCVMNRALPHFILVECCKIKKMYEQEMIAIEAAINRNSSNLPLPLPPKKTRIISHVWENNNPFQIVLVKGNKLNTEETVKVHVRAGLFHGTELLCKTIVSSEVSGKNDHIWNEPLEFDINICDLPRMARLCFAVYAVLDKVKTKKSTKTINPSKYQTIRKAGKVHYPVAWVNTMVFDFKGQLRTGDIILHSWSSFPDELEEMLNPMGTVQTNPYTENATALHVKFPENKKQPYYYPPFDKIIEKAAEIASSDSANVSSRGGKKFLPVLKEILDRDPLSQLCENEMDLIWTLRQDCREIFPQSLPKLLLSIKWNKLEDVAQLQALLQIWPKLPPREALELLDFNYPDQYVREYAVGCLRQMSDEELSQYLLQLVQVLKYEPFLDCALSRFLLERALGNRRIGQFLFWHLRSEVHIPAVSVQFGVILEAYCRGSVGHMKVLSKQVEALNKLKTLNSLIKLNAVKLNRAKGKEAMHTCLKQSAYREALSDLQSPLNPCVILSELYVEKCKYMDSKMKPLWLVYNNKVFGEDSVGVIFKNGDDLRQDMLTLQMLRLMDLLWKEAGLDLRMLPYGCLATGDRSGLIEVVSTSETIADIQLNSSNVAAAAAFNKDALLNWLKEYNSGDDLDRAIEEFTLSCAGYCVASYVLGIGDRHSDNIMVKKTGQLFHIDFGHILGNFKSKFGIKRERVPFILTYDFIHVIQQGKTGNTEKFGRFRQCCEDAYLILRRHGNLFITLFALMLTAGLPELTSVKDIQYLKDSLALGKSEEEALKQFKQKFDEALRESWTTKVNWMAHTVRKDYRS
T4 sequence (P27986 whole entry partner): as the sequence (P27986 whole entry partner) above
T1 sequence (P42336 whole entry): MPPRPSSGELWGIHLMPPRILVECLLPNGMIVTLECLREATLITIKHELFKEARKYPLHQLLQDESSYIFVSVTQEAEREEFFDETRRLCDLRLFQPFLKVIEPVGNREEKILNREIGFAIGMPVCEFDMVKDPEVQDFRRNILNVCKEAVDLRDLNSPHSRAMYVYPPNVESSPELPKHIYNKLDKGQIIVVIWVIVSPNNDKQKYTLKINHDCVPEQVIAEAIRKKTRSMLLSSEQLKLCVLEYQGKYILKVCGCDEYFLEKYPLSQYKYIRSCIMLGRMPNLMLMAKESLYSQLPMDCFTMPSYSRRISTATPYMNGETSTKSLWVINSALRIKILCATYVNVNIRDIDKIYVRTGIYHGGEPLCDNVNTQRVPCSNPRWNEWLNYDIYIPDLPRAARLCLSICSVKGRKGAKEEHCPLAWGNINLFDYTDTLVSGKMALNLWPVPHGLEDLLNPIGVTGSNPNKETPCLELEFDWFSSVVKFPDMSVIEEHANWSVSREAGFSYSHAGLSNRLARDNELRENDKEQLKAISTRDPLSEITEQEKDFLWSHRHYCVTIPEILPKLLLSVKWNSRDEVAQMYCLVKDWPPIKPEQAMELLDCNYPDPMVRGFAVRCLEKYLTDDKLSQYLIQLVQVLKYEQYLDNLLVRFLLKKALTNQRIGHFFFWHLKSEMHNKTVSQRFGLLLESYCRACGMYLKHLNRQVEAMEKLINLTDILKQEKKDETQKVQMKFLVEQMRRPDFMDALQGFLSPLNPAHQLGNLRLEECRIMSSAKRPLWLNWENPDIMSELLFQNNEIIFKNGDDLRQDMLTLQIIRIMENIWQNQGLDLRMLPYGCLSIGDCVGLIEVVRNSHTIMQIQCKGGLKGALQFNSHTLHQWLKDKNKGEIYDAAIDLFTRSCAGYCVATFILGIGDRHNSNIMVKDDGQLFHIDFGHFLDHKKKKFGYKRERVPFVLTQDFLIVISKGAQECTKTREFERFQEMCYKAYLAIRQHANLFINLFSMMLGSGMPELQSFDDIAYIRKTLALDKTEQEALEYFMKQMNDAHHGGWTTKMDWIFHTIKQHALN
T1 sequence (P27986 whole entry partner): as the sequence (P27986 whole entry partner) above

As usually defined, the IC50 is the concentration that inhibits the measured activity by half. `C[C@@H]1COCCN1C1CN(c2cnc3ccc(-c4ccc5oc(N)nc5c4)nc3n2)C1` [Compound 49]: the IC50 in assay [1] was under 10 µM; in assay [2], under 10 µM; in assay [3] (setting [5]) it was over 10 µM; in assay [4], over 10 µM.
Consider `Nc1nc2cc(-c3ccc4ncc(N5CC(N6CCOCC6)C5)nc4n3)ccc2o1` [Compound 5], for which the IC50 in assay [1] is under 0.1 µM; in assay [2], under 10 µM; in assay [3] (setting [5]), under 10 µM; in assay [4], over 10 µM.
As for `C[C@H]1CN(C2CN(c3cnc4ccc(-c5ccc6oc(N)nc6c5)nc4n3)C2)CCN1C` [Compound 21], the IC50 in assay [1] is under 0.1 µM; in assay [2], over 10 µM; in assay [3] (setting [5]), under 10 µM; in assay [4], over 10 µM.
Consider `CC1(C)CN(C2CN(c3cnc4ccc(-c5ccc6oc(N)nc6c5)nc4n3)C2)CCN1` [Compound 52], for which the IC50 in assay [1] is under 0.1 µM; in assay [2] it was under 10 µM; in assay [3] (setting [5]) it was under 1 µM; in assay [4], under 10 µM.
For `Nc1nc2cc(-c3ccc4ncc(N5CC(N6CCN(CCO)CC6)C5)cc4n3)ccc2o1` [Compound 65], the 50% inhibitory concentration (IC50) in assay [1] was under 0.1 µM; in assay [2], under 1 µM; in assay [3] (setting [5]) it was under 1 µM; in assay [4], under 10 µM.
For `Cc1nccn1C1CN(c2cnc3ccc(-c4ccc5oc(N)nc5c4)nc3c2)C1` [Compound 63], the IC50 in assay [1] was under 0.1 µM; in assay [2], under 0.1 µM; in assay [3] (setting [5]), under 1 µM; in assay [4] it was under 10 µM.
`C[C@@H]1CN(C2CN(c3cnc4ccc(-c5ccc6oc(N)nc6c5)nc4n3)C2)CCN1` [Compound 12]: the IC50 was under 0.1 µM in assay [1], over 10 µM in assay [2], under 10 µM in assay [3] (setting [5]) and over 10 µM in assay [4].
Regarding `CN1CCN(C2CN(c3cnc4ccc(-c5ccc6nc(N)[nH]c6c5)nc4c3)C2)CC1` [Compound 88], the IC50 in assay [1] was under 0.1 µM; in assay [2], over 10 µM; in assay [3] (setting [5]), over 10 µM; in assay [4], over 10 µM.
With `Nc1nc2cc(-c3ccc4ncc(N5CC(N6C7CCC6COC7)C5)cc4n3)ccc2o1` [Compound 67], the IC50 in assay [1] was under 0.1 µM; in assay [2], under 1 µM; in assay [3] it was under 10 µM; in assay [4] it was over 10 µM.
Regarding `Nc1nc2cc(-c3ccc4ncc(N5CC6CCC(C5)O6)cc4n3)ccc2o1` [Compound 59], the IC50 in assay [1] was under 0.1 µM; in assay [2] it was under 0.1 µM; in assay [3] (setting [5]) it was over 10 µM; in assay [4], over 10 µM.
As for `Nc1nc2cc(-c3ccc4ncc(N5CCC(O)CC5)cc4n3)ccc2o1` [Compound 62], the IC50 in assay [1] is under 0.1 µM; in assay [2], under 1 µM; in assay [3] (setting [5]), under 10 µM; in assay [4], under 10 µM.
On to `CS(=O)(=O)N1CCN(C2CN(c3cnc4ccc(-c5ccc6oc(N)nc6c5)nc4n3)C2)CC1` [Compound 8], for which the 50% inhibitory concentration (IC50) in assay [1] was under 0.1 µM; in assay [2] it was under 1 µM; in assay [3] (setting [5]), under 10 µM; in assay [4], over 10 µM.
As for `CC(C)(N)C(=O)N1CCN(c2ccc3ncc(-c4ccc5oc(N)nc5c4)cc3n2)CC1` [Compound 82], the IC50 in assay [1] is under 10 µM; in assay [2] it was under 10 µM; in assay [3] (setting [5]), over 10 µM; in assay [4], over 10 µM.
As for `Nc1nc2cc(-c3ccc4ncc(N5CC(N6CC7CCC(C6)O7)C5)nc4n3)ccc2o1` [Compound 20], the IC50 is under 1 µM in assay [1], under 10 µM in assay [2], over 10 µM in assay [3] (setting [5]) and over 10 µM in assay [4].
With `C[C@@H]1CN(C2CN(c3cnc4ccc(-c5ccc6oc(N)nc6c5)nc4c3)C2)CCN1C` [Compound 57], the IC50 in assay [1] is under 0.1 µM; in assay [2], under 10 µM; in assay [3] (setting [5]), under 1 µM; in assay [4] it was under 10 µM.
Consider `C[C@H]1CN(C2CN(c3cnc4ccc(-c5ccc6oc(N)nc6c5)nc4c3)C2)CCN1C` [Compound 55], for which the IC50 was under 0.1 µM in assay [1], under 10 µM in assay [2], under 1 µM in assay [3] (setting [5]) and under 10 µM in assay [4].
